Assay results taken from patent US6737383B1, “Herbicidal oxadiazolidines” (priority 1999, dated 2004).

How the values were obtained:
[1] = system: rape; test: Test B pre/postemergence rape; format: in vivo, Brassica napus
Outline: (§1)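 Response is a visual 0-to-10 score relative to untreated plants, where 0 means no effect and 10 means complete control, taken twelve to sixteen days after application. Treatments went onto soil at planting and onto foliage of 1- to 4-leaf plants, using a surfactant-containing non-phytotoxic solvent.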

[2] = system: crabgrass; test: Test B pre/postemergence crabgrass; format: in vivo, Digitaria sanguinalis
Outline: as §1

[3] = system: velvetleaf; test: Test B pre/postemergence velvetleaf; format: in vivo, Abutilon theophrasti
Outline: as §1

[4] = system: giant foxtail; test: Test B pre/postemergence giant foxtail; format: in vivo, Setaria faberii
Outline: as §1

[5] = system: blackgrass; test: Test B pre/postemergence blackgrass; format: in vivo, Alopecurus myosuroides
Outline: as §1

[6] = system: sugar beet; test: Test B pre/postemergence sugar beet; format: in vivo, Beta vulgaris
Outline: as §1

[7] = system: wild oat; test: Test B pre/postemergence wild oat; format: in vivo, Avena fatua
Outline: as §1

[8] = system: surinam grass; test: Test B pre/postemergence surinam grass; format: in vivo, Brachiaria decumbens
Outline: as §1

[9] = system: purple nutsedge; test: Test B pre/postemergence purple nutsedge; format: in vivo, Cyperus rotundus
Outline: as §1

[10] = system: cocklebur; test: Test B pre/postemergence cocklebur; format: in vivo, Xanthium strumarium
Outline: as §1

[11] = system: corn; test: Test B pre/postemergence corn; format: in vivo, Zea mays
Outline: as §1

[12] = system: bedstraw; test: Test B pre/postemergence bedstraw; format: in vivo, Galium aparine
Outline: as §1

[13] = system: morningglory; test: Test B pre/postemergence morningglory; format: in vivo, Ipomoea hederacea
Outline: as §1

[14] = system: soybean; test: Test B pre/postemergence soybean; format: in vivo, Glycine max
Outline: as §1

[15] = system: wheat; test: Test B pre/postemergence wheat; format: in vivo, Triticum aestivum
Outline: as §1

[16] = system: pigweed; test: Test B pre/postemergence pigweed; format: in vivo, Amaranthus retroflexus
Outline: as §1

[17] = Postemergence, Rate 62 g/ha, scale 0 to 10, 0 is no effect, 10 is complete control
[18] = Postemergence, Rate 125 g/ha, scale of 0 to 10 where 0 is no effect and 10 is complete control
[19] = Preemergence, Rate 125 g/ha, scale of 0 to 10 where 0 is no effect and 10 is complete control
[20] = Preemergence, Rate 250 g/ha, scale 0 (no effect) to 10 (complete control)
[21] = Rate 62 g/ha, Preemergence, scale 0 to 10
[22] = Rate 250 g/ha, Postemergence, scale 0 to 10, 0 is no effect, 10 is complete control
[23] = Rate 500 g/ha, Postemergence, scale 0 to 10, 0 is no effect, 10 is complete control
[24] = Rate 500 g/ha, Preemergence, scale 0 to 10 (0 no effect, 10 complete control)

SMILES: CC(C)N(C(=O)n1oc(=O)n(C[C@H](C)Cl)c1=O)c1ccc(Cl)cc1 [Compound 748]
- Plant response rating, Rape [1, 17]: 0
- Rape plant response rating [1, 18]: 3
- Plant response rating, Rape [1, 19]: 0
- Rape plant response rating [1, 20]: 0
- Rape plant response rating [1, 21]: 0
- Rape plant response rating [1, 22]: 6
- Rape plant response rating [1, 23]: 7
- Rape plant response rating [1, 24]: 7
- Plant response rating, Crabgrass [2, 17]: 2
- Crabgrass plant response rating [2, 18]: 3
- Plant response rating, Crabgrass [2, 19]: 10
- Crabgrass plant response rating [2, 20]: 10
- Crabgrass plant response rating [2, 21]: 9
- Crabgrass plant response rating [2, 22]: 8
- Crabgrass plant response rating [2, 23]: 9
- Crabgrass plant response rating [2, 24]: 10
- Plant response rating, Velvetleaf [3, 17]: 0
- Velvetleaf plant response rating [3, 18]: 0
- Plant response rating, Velvetleaf [3, 19]: 0
- Velvetleaf plant response rating [3, 20]: 0
- Velvetleaf plant response rating [3, 21]: 0
- Velvetleaf plant response rating [3, 22]: 0
- Velvetleaf plant response rating [3, 23]: 4
- Velvetleaf plant response rating [3, 24]: 0
- Plant response rating, Giant foxtail [4, 17]: 2
- Giant foxtail plant response rating [4, 18]: 6
- Plant response rating, Giant foxtail [4, 19]: 10
- Giant foxtail plant response rating [4, 20]: 10
- Giant foxtail plant response rating [4, 21]: 9
- Giant foxtail plant response rating [4, 22]: 8
- Giant foxtail plant response rating [4, 23]: 9
- Giant foxtail plant response rating [4, 24]: 10
- Plant response rating, Blackgrass [5, 17]: 5
- Blackgrass plant response rating [5, 18]: 6
- Plant response rating, Blackgrass [5, 19]: 3
- Blackgrass plant response rating [5, 21]: 0
- Blackgrass plant response rating [5, 22]: 7
- Blackgrass plant response rating [5, 23]: 8
- Blackgrass plant response rating [5, 24]: 9
- Plant response rating, Sugarbeets [6, 17]: 0
- Sugarbeets plant response rating [6, 18]: 2
- Plant response rating, Sugarbeets [6, 19]: 0
- Sugarbeets plant response rating [6, 20]: 2
- Sugarbeets plant response rating [6, 21]: 0
- Sugarbeets plant response rating [6, 22]: 6
- Sugarbeets plant response rating [6, 23]: 7
- Sugarbeets plant response rating [6, 24]: 7
- Plant response rating, Wild oats [7, 17]: 0
- Wild oats plant response rating [7, 18]: 0
- Plant response rating, Wild oats [7, 19]: 2
- Wild oats plant response rating [7, 20]: 2
- Wild oats plant response rating [7, 21]: 0
- Wild oats plant response rating [7, 22]: 0
- Wild oats plant response rating [7, 23]: 0
- Wild oats plant response rating [7, 24]: 8
- Plant response rating, B. signalgrass [8, 17]: 2
- B. signalgrass plant response rating [8, 18]: 2
- B. signalgrass plant response rating ([8]; Preemergence, Rate 62 g/ha, scale of 0 to 10 where 0 is no effect and 10 is complete control): 0
- Plant response rating, B. signalgrass [8, 19]: 3
- B. signalgrass plant response rating [8, 20]: 3
- B. signalgrass plant response rating [8, 22]: 4
- B. signalgrass plant response rating [8, 23]: 7
- B. signalgrass plant response rating [8, 24]: 10
- Plant response rating, Nutsedge [9, 17]: 0
- Nutsedge plant response rating [9, 18]: 0
- Plant response rating, Nutsedge [9, 19]: 0
- Nutsedge plant response rating [9, 20]: 0
- Nutsedge plant response rating [9, 21]: 0
- Nutsedge plant response rating [9, 22]: 0
- Nutsedge plant response rating [9, 23]: 0
- Nutsedge plant response rating [9, 24]: 2
- Plant response rating, Cocklebur [10, 17]: 0
- Cocklebur plant response rating [10, 18]: 0
- Plant response rating, Cocklebur [10, 19]: 0
- Cocklebur plant response rating [10, 20]: 0
- Cocklebur plant response rating [10, 21]: 0
- Cocklebur plant response rating [10, 22]: 0
- Cocklebur plant response rating [10, 24]: 0
- Plant response rating, Corn [11, 17]: 0
- Corn plant response rating [11, 18]: 0
- Plant response rating, Corn [11, 19]: 0
- Corn plant response rating [11, 20]: 0
- Corn plant response rating [11, 21]: 0
- Corn plant response rating [11, 22]: 0
- Corn plant response rating [11, 23]: 0
- Corn plant response rating [11, 24]: 4
- Plant response rating, Bedstraw [12, 17]: 5
- Bedstraw plant response rating [12, 18]: 6
- Plant response rating, Bedstraw [12, 19]: 0
- Bedstraw plant response rating [12, 20]: 0
- Bedstraw plant response rating [12, 22]: 9
- Bedstraw plant response rating [12, 23]: 9
- Bedstraw plant response rating [12, 24]: 0
- Plant response rating, Morningglory [13, 17]: 0
- Morningglory plant response rating [13, 18]: 6
- Plant response rating, Morningglory [13, 19]: 0
- Morningglory plant response rating [13, 20]: 0
- Morningglory plant response rating [13, 21]: 0
- Morningglory plant response rating [13, 22]: 6
- Morningglory plant response rating [13, 23]: 7
- Morningglory plant response rating [13, 24]: 0
- Plant response rating, Soybean [14, 17]: 3
- Soybean plant response rating [14, 18]: 3
- Plant response rating, Soybean [14, 19]: 0
- Soybean plant response rating [14, 20]: 0
- Soybean plant response rating [14, 21]: 0
- Soybean plant response rating [14, 22]: 4
- Soybean plant response rating [14, 23]: 5
- Soybean plant response rating [14, 24]: 0
- Plant response rating, Wheat [15, 17]: 0
- Wheat plant response rating [15, 18]: 0
- Plant response rating, Wheat [15, 19]: 0
- Wheat plant response rating [15, 20]: 0
- Wheat plant response rating [15, 21]: 0
- Wheat plant response rating [15, 22]: 0
- Wheat plant response rating [15, 24]: 5
- Plant response rating, Redroot pigweed [16, 17]: 2
- Redroot pigweed plant response rating [16, 18]: 4
- Plant response rating, Redroot pigweed [16, 19]: 10
- Redroot pigweed plant response rating [16, 20]: 10
- Redroot pigweed plant response rating [16, 21]: 4
- Redroot pigweed plant response rating [16, 22]: 6
- Redroot pigweed plant response rating [16, 23]: 8
- Redroot pigweed plant response rating [16, 24]: 10
